Laboratory results as given in patent US11226337B2, “Chemoproteomic profiling of protein electrophilic and oxidative post-translational modifications” (Zenagem, LLC, priority 2017, dated 2022).

Legend:
Test in all cases: SILAC RP-ABPP
Format in all cases: cell-based
[1] = biological target: T1, ACAA1 3ketoacylCoA thiolase, peroxisomal (P09110) (Homo sapiens, UniProt P09110); details: SILAC H/L, MDA-MB-231
T1 construct: endogenous in cells; host or cells: HEK293T or MDA-MB-231
Outline: (§1)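 Heavy SILAC HEK293T or MDA-MB-231 cells were treated with a clickable hydrazine probe; light cells received the non-clickable analogue (enrichment) or the probe plus 10-fold excess non-clickable competitor (competition). Mixed proteomes underwent CuAAC with 100 μM biotin-azide for 1 h. Heavy:light ratios were taken as median peptide ratios (≥3 peptides) averaged over ≥3 replicates.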

[2] = biological target: T2, ACOX1 Peroxisomal acylcoenzyme A oxidase 1 (Q15067) (Homo sapiens, UniProt Q15067); details: SILAC H/L, HEK293T
T2 construct: In Situ Labelling of Cells with Hydrazine Probes for MS Experiments; endogenous in cells; host or cells: HEK293T and/or MDA-MB-231
T2 sequence (Q15067 whole entry): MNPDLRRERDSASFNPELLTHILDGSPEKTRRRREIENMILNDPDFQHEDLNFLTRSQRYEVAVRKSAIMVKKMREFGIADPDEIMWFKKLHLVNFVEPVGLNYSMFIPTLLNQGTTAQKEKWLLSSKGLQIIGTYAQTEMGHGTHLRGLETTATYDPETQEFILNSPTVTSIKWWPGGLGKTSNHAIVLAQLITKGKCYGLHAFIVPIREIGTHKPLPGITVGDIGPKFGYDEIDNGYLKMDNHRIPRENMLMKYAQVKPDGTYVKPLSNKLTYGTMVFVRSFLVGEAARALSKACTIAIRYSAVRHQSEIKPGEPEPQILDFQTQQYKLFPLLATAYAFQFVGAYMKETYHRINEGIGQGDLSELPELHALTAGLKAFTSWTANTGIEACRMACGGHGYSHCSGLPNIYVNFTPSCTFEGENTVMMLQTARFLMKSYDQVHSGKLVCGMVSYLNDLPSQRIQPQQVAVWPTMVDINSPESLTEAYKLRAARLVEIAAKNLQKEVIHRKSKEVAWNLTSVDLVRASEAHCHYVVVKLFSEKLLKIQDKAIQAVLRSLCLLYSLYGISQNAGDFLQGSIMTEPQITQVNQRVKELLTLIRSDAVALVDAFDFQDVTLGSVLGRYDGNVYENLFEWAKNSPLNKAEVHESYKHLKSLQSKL
Outline: as §1

[3] = biological target: T3, ERAP1 Endoplasmic reticulum aminopeptidase (Q9NZ08) (Homo sapiens, UniProt Q9NZ08); details: SILAC H/L, MDA-MB-231
T3 construct: endogenous in cells; host or cells: HEK293T or MDA-MB-231
T3 sequence (Q9NZ08 whole entry): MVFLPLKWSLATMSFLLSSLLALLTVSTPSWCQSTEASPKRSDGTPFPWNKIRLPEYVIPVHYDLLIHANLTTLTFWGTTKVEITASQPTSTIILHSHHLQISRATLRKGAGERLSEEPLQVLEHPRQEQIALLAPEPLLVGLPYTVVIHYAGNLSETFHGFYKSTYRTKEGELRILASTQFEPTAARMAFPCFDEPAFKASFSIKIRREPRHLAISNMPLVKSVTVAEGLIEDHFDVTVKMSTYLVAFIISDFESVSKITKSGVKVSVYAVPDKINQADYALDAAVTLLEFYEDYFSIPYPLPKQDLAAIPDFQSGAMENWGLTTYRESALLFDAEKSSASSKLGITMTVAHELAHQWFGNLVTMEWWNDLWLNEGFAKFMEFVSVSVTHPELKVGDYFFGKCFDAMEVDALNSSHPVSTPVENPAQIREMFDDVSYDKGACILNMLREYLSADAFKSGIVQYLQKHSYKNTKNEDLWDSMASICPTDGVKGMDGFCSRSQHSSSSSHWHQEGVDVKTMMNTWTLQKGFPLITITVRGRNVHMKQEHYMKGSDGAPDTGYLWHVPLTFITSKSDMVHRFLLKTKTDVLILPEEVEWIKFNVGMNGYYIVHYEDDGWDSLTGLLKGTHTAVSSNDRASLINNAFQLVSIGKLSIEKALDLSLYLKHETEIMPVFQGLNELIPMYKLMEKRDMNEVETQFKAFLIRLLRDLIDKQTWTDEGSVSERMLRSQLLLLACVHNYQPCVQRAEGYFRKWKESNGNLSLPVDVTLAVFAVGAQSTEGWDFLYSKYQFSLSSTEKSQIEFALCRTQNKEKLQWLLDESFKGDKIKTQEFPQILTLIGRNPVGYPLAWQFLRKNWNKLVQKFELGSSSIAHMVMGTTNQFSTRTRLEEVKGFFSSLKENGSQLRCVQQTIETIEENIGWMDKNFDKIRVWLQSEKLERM
Outline: as §1

[4] = biological target: T4, HMOX2 Heme oxygenase 2 (P30519) (Homo sapiens, UniProt P30519); details: SILAC H/L, HEK293T
T4 construct: In Situ Labelling of Cells with Hydrazine Probes for MS Experiments; endogenous in cells; host or cells: HEK293T and/or MDA-MB-231
T4 sequence (P30519 whole entry): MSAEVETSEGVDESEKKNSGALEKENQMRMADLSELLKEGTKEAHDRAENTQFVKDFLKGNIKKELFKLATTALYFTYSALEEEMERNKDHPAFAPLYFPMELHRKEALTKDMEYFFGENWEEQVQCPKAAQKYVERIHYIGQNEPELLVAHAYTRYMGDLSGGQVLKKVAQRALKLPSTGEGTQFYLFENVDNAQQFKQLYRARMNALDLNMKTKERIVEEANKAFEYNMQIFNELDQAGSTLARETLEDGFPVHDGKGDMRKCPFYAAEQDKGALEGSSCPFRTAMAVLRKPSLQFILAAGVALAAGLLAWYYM
Outline: as §1

[5] = biological target: T5, KDM1A Lysinespecific histone demethylase 1A (O60341) (Homo sapiens, UniProt O60341); details: SILAC H/L, HEK293T
T5 construct: In Situ Labelling of Cells with Hydrazine Probes for MS Experiments; endogenous in cells; host or cells: HEK293T and/or MDA-MB-231
Outline: as §1

[6] = biological target: T6, KDM1B Lysinespecific histone demethylase 1B (Q8NB78) (Homo sapiens, UniProt Q8NB78); details: SILAC H/L, HEK293T
T6 construct: In Situ Labelling of Cells with Hydrazine Probes for MS Experiments; endogenous in cells; host or cells: HEK293T and/or MDA-MB-231
Outline: as §1

[7] = biological target: T7, MINA MYCinduced nuclear antigen (Q8IUF8) (Homo sapiens, UniProt Q8IUF8); details: SILAC H/L, HEK293T
T7 construct: In Situ Labelling of Cells with Hydrazine Probes for MS Experiments; endogenous in cells; host or cells: HEK293T and/or MDA-MB-231
T7 sequence (Q8IUF8 whole entry): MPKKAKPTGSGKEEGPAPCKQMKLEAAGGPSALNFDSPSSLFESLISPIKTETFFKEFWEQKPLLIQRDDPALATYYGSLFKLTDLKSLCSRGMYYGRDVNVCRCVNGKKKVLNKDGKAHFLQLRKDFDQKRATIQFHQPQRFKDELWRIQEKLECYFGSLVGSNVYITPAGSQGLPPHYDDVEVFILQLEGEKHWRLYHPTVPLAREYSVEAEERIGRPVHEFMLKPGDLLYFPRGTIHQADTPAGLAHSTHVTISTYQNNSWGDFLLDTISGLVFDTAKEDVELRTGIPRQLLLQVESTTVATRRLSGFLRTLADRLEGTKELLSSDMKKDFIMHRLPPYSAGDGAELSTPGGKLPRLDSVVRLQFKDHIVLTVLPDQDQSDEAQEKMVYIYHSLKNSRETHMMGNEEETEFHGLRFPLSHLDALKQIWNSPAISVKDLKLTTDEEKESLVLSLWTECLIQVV
Outline: as §1

[8] = biological target: T8, NAGA AlphaNacetylgalactosaminidase (P17050) (Homo sapiens, UniProt P17050); details: SILAC H/L, MDA-MB-231
T8 construct: endogenous in cells; host or cells: HEK293T or MDA-MB-231
T8 sequence (P17050 18-411): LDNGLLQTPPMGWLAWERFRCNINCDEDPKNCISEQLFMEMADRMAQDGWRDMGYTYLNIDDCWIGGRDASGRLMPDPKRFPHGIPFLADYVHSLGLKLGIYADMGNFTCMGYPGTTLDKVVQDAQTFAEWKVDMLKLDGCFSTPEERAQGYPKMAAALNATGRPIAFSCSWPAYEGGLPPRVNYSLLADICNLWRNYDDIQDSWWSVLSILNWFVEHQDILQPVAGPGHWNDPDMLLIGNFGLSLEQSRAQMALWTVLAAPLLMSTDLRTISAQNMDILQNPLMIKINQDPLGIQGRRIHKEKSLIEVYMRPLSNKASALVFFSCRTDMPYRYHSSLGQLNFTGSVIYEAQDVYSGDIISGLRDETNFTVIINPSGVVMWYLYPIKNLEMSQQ
Outline: as §1

[9] = biological target: T9, PRCP Lysosomal ProX carboxypeptidase (P42785) (Homo sapiens, UniProt P42785); details: SILAC H/L, MDA-MB-231
T9 construct: endogenous in cells; host or cells: HEK293T or MDA-MB-231
T9 sequence (P42785 46-496): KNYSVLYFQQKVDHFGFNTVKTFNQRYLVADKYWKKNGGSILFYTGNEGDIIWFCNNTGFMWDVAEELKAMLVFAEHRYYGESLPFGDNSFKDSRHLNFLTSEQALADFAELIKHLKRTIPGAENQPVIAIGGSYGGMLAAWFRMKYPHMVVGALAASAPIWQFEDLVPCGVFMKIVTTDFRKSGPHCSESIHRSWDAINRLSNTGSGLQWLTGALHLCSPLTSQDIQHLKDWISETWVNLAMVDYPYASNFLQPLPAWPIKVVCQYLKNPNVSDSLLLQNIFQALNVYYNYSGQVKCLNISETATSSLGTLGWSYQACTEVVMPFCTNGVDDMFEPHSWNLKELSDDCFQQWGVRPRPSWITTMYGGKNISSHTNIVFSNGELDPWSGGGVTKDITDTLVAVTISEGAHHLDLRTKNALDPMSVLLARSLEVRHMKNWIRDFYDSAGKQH
Outline: as §1

[10] = biological target: T10, RAB14 Rasrelated protein Rab14 (P61106) (Homo sapiens, UniProt P61106); details: SILAC H/L, MDA-MB-231
T10 construct: endogenous in cells; host or cells: HEK293T or MDA-MB-231
T10 sequence (P61106 whole entry): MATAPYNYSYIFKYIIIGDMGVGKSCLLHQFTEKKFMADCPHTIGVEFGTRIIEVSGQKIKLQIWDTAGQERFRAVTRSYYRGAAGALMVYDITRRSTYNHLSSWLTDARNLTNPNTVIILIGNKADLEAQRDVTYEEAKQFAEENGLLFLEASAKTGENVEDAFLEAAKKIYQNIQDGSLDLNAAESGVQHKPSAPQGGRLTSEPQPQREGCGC
Outline: as §1

[11] = biological target: T11, RRM2B Ribonucleosidediphosphate reductase (Q7LG56) (Homo sapiens, UniProt Q7LG56); details: SILAC H/L, MDA-MB-231
T11 construct: endogenous in cells; host or cells: HEK293T or MDA-MB-231
T11 sequence (Q7LG56 whole entry): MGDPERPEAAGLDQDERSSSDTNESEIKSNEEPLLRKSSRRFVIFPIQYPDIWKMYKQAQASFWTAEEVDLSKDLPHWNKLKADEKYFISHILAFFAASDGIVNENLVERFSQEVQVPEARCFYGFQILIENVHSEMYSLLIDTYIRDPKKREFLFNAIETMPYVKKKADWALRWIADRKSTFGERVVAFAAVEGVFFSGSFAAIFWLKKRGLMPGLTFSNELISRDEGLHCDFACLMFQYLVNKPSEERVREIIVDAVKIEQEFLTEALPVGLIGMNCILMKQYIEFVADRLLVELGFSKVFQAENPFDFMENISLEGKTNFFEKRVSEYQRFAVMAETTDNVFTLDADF
Outline: as §1

[12] = biological target: T12, SCD AcylCoA desaturase (O00767) (Homo sapiens, UniProt O00767); details: SILAC H/L, HEK293T
T12 construct: In Situ Labelling of Cells with Hydrazine Probes for MS Experiments; endogenous in cells
T12 sequence (O00767 whole entry): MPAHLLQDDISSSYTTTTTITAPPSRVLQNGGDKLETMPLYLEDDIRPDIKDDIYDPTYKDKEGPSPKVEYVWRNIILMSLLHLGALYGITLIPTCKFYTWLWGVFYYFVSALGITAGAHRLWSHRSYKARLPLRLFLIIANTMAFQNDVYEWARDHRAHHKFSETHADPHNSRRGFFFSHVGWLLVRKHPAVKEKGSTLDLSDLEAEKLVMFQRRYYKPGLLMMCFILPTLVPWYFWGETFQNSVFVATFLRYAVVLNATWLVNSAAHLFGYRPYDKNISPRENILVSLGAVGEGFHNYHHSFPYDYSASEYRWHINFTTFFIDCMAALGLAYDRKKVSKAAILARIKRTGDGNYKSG
Outline: as §1

[13] = biological target: T13, TTC38 Tetratricopeptide repeat protein 38 (Q5R3I4) (Homo sapiens, UniProt Q5R3I4); details: SILAC H/L, HEK293T
T13 construct: In Situ Labelling of Cells with Hydrazine Probes for MS Experiments; endogenous in cells; host or cells: HEK293T and/or MDA-MB-231
Outline: as §1

[14] = biological target: T14, aminotransferase, mitoch (O15382) (Homo sapiens, UniProt O15382); details: SILAC H/L, MDA-MB-231
T14 construct: endogenous in cells; host or cells: HEK293T or MDA-MB-231
T14 sequence (O15382 28-392): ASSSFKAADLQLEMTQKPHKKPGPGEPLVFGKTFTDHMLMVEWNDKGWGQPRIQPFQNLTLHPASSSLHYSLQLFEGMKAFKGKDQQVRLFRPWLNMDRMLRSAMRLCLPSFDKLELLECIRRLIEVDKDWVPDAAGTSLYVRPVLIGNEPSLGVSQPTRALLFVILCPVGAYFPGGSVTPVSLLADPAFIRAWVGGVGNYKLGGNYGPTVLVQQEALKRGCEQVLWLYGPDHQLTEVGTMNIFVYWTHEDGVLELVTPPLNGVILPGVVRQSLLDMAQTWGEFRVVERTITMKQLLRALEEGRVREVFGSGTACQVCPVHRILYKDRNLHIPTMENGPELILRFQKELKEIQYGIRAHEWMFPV
Outline: as §1

T1 sequence (P09110 27-424): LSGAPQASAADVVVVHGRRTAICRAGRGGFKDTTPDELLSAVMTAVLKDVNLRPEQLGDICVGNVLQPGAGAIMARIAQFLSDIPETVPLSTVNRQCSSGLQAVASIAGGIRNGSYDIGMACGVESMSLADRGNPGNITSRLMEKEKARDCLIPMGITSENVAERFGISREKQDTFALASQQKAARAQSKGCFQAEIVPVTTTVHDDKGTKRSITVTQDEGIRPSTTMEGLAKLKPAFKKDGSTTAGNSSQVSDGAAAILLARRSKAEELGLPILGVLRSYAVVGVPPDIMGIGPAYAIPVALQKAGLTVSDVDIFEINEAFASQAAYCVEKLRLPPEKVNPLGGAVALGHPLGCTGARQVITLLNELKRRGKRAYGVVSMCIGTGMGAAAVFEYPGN

SMILES: C#CCCNC(=O)c1ccc(NN)cc1.Cl [probe 2, N-(but-3-yn-1-yl)-4-hydrazinylbenzamide hydrochloride]
- enrichment ratioavg ([1]; probe 2 1 mM 0.5 h vs probe 4): 6
- competition ratioavg ([1]; probe 2 vs probe 2+10x probe 4): 2
- enrichment ratioavg ([2]; probe 2 1 mM 0.5 h vs probe 4): 19
- competition ratioavg ([2]; probe 2 vs probe 2+10x probe 4): 2
- enrichment ratioavg ([3]; probe 2 1 mM 0.5 h vs probe 4): 8
- competition ratioavg ([3]; probe 2 vs probe 2+10x probe 4): 4
- enrichment ratioavg ([4]; probe 2 1 mM 0.5 h vs probe 4): 20
- competition ratioavg ([4]; probe 2 vs probe 2+10x probe 4): 5
- enrichment ratioavg ([5]; probe 2 1 mM 0.5 h vs probe 4): 20
- competition ratioavg ([5]; probe 2 vs probe 2+10x probe 4): 2
- enrichment ratioavg ([6]; probe 2 1 mM 0.5 h vs probe 4): 17
- competition ratioavg ([6]; probe 2 vs probe 2+10x probe 4): 2
- enrichment ratioavg ([7]; probe 2 1 mM 0.5 h vs probe 4): 8
- competition ratioavg ([7]; probe 2 vs probe 2+10x probe 4): 2
- enrichment ratioavg ([8]; probe 2 1 mM 0.5 h vs probe 4): 17
- competition ratioavg ([8]; probe 2 vs probe 2+10x probe 4): 3
- enrichment ratioavg ([9]; probe 2 1 mM 0.5 h vs probe 4): 15
- competition ratioavg ([9]; probe 2 vs probe 2+10x probe 4): 4
- enrichment ratioavg ([10]; probe 2 1 mM 0.5 h vs probe 4): 5
- competition ratioavg ([10]; probe 2 vs probe 2+10x probe 4): 3
- enrichment ratioavg ([11]; probe 2 1 mM 0.5 h vs probe 4): 7
- competition ratioavg ([11]; probe 2 vs probe 2+10x probe 4): 2
- enrichment ratioavg ([12]; probe 2 1 mM 0.5 h vs probe 4): 20
- competition ratioavg ([12]; probe 2 vs probe 2+10x probe 4): 9
- enrichment ratioavg ([13]; probe 2 1 mM 0.5 h vs probe 4): 14
- competition ratioavg ([13]; probe 2 vs probe 2+10x probe 4): 2
- enrichment ratioavg ([14]; probe 2 1 mM 0.5 h vs probe 4): 15
- competition ratioavg ([14]; probe 2 vs probe 2+10x probe 4): 2
